# Assay results: US20240294466A1, “SODIUM N-(8-(2- HYDROXYBENZOYL)AMINO)CAPRYLATE P[…] A” (Novo Nordisk A/S, priority 2021, published 2024)
# Key:
# Assay type in all cases: physicochemical
# [1] = XRPD FWHM of the peak at 8.7±0.2° 2θ (degree of crystal imperfections), method 1; conditions: Batch 5, tray oven
# Protocol: (§1) XRPD was performed using a Malvern Panalytical Empyrean diffractometer at ambient conditions. The diffraction pattern was measured at room temperature using an Empyrean Cu LFF HR (45 kV/40 mA) source and PIXcel3D-Medipix3 1×1 detector. The measurement was performed in the range of 2-40° 20 using a scan speed of 0.067335° 2θ/s and a step size of 0.0262606° 2θ. The samples were measured in transmission mode and with a spinner revolution time of 1 second. Approximately 200 mg of sample were placed between two sheets of Kapton Polyimide Thin-film. The measurements were performed using a Soller slit of 0.04 radians and a fixed divergence slit of 0.5° on the incident beam, and a 3 mm Anti scatter slit and a Soller slit of 0.04 radians in the diffracted beam.
# The degree of crystal imperfections was assessed by use of the FWHM as more crystal imperfections might cause peak broadening and lower peak height, which leads to higher FWHM values due to fewer lattice planes with identical orientation contributing to the diffraction peak. Oppositely, in the absence of crystal imperfections, lattice planes with identical orientation increase and result in narrower and higher diffraction peaks leading to smaller FWHM values. The FWHM was calculated using the characteristic peak at 8.7±0.2° 2θ by finding the apex of the peak and measuring the height of the peak applying the x-axis as the baseline (automatic mode) (see FIG. 11) or applying a baseline spanning the two surrounding troughs (manual mode) (see FIG. 12). This value is then divided in half to find the half height. Hereafter the width of the peak at that half height is measured and reported in ° 2θ. Alternatively, the peak at 6.0±0.2° 2θ may also be used to calculate the FWHM.
# (§2) Samples from a batch of SNAC polymorphic form A (Batch 5) with a FWHM of 0.97° 2θ (automatic mode) and a moisture uptake of 1.98% at 65% RH from the beginning were heated to 90, 100, 110, 120, 130, and 140° C., respectively, in a tray oven. The samples were exposed to their respective temperatures for up to 72 h. The sample size was small enough to ensure that the samples equilibrated completely, within a few of minutes, to the oven temperature. Samples were taken during the 72 h of elevated temperature exposure and subjected to XRPD measurements in accordance with method 1 to determine the polymorphic form and impact on crystal imperfections using FWHM with the x-axis as the baseline (automatic mode).
# (§3) Samples from different batches of SNAC polymorphic form A were subjected to a heat treatment in a tray oven and the sample size was small enough to ensure that the samples equilibrated completely and within a couple of minutes to the oven temperature. Samples were taken from the batches before the heat treatment and after the heat treatment and subjected to XRPD measurements in accordance with method 1 to determine the polymorphic form and impact on crystal imperfections using FWHM with the x-axis as the baseline (auto mode). Furthermore, samples were also subjected to DVS measurements in accordance with method 3 to determine the impact of the heat treatment on the hygroscopicity.
# [2] = Dynamic vapour sorption (DVS) moisture uptake, method 3; conditions: for mass increase when subjected to an increase in relative humidity from about 0% to about 65% RH as determined by DVS: 25° C.; for Moisture absorbed for SNAC at 65% RH determined by DVS: DVS at 25 °C
# Protocol: Moisture sorption/desorption data were measured by a Dynamic Vapour Sorption Advantage 1 from Surface Measurement Systems. Prior to analysis the samples were dried for up to about 48 h in desiccators containing phosphorus pentoxide. Approximately 20 mg of sample was placed into a balance pan and loaded into the instrument and the sample was then further dried for a minimum of 500 min in the instrument at 0% RH using a nitrogen purge. The resulting sample weight after the further drying was assigned as the 0% start weight and all weight gains and losses was calculated relative to this start weight. Sorption and desorption isotherms were collected over a range from 0 to 90% relative humidity (RH) using a nitrogen purge at 25° C. The threshold for equilibrium used for analysis was 0.002 to 0.0005 dm/dt.
# Furthermore, samples were taken after 24 h of exposure at the indicated elevated temperatures and were subjected to dynamic vapor sorption measurements in accordance with method 3 to determine the hygroscopicity. The moisture uptake was measured at 65% RH. The hygroscopicity is decreased as the moisture absorbed at 65% RH decreases when exposing SNAC polymorphic form A to elevated temperatures for 24 h.
# [3] = Polymorphic form determined by XRPD, method 1; conditions: for Polymorphic form of SNAC determined by XRPD: Batch 5, tray oven
# Protocol: as §1
# The polymorphic form of the sample was determined by comparison of the diffractogram obtained for the sample with reference diffractograms for the SNAC polymorphs and solvates.
# as §2, §3
smiles,measurement,setting,value
"O=C([O-])CCCCCCCNC(=O)c1ccccc1O.[Na+] [SNAC, monosodium N-[8-(2-hydroxybenzoyl)-amino]caprylate]",FWHM (automatic mode) for the XRPD peak around 8.7 ± 0.2° 2θ,"[1]; 90 °C, 0 h",0.97 ° 2θ
same,FWHM (automatic mode) for the XRPD peak around 8.7 ± 0.2° 2θ,"[1]; 90 °C, 0.25 h",0.95 ° 2θ
same,FWHM (automatic mode) for the XRPD peak around 8.7 ± 0.2° 2θ,"[1]; 90 °C, 0.5 h",0.95 ° 2θ
same,FWHM (automatic mode) for the XRPD peak around 8.7 ± 0.2° 2θ,"[1]; 90 °C, 1 h",0.92 ° 2θ
same,FWHM (automatic mode) for the XRPD peak around 8.7 ± 0.2° 2θ,"[1]; 90 °C, 6 h",0.92 ° 2θ
same,FWHM (automatic mode) for the XRPD peak around 8.7 ± 0.2° 2θ,"[1]; 90 °C, 24 h",0.89 ° 2θ
same,FWHM (automatic mode) for the XRPD peak around 8.7 ± 0.2° 2θ,"[1]; 90 °C, 48 h",0.89 ° 2θ
same,FWHM (automatic mode) for the XRPD peak around 8.7 ± 0.2° 2θ,"[1]; 90 °C, 72 h",0.89 ° 2θ
same,FWHM (automatic mode) for the XRPD peak around 8.7 ± 0.2° 2θ,"[1]; 100 °C, 0 h",0.97 ° 2θ
same,FWHM (automatic mode) for the XRPD peak around 8.7 ± 0.2° 2θ,"[1]; 100 °C, 0.25 h",1.02 ° 2θ
same,FWHM (automatic mode) for the XRPD peak around 8.7 ± 0.2° 2θ,"[1]; 100 °C, 0.5 h",0.95 ° 2θ
same,FWHM (automatic mode) for the XRPD peak around 8.7 ± 0.2° 2θ,"[1]; 100 °C, 1 h",0.95 ° 2θ
same,FWHM (automatic mode) for the XRPD peak around 8.7 ± 0.2° 2θ,"[1]; 100 °C, 6 h",0.89 ° 2θ
same,FWHM (automatic mode) for the XRPD peak around 8.7 ± 0.2° 2θ,"[1]; 100 °C, 24 h",0.81 ° 2θ
same,FWHM (automatic mode) for the XRPD peak around 8.7 ± 0.2° 2θ,"[1]; 100 °C, 48 h",0.81 ° 2θ
same,FWHM (automatic mode) for the XRPD peak around 8.7 ± 0.2° 2θ,"[1]; 100 °C, 72 h",0.81 ° 2θ
same,FWHM (automatic mode) for the XRPD peak around 8.7 ± 0.2° 2θ,"[1]; 110 °C, 0 h",0.97 ° 2θ
same,FWHM (automatic mode) for the XRPD peak around 8.7 ± 0.2° 2θ,"[1]; 110 °C, 0.25 h",0.92 ° 2θ
same,FWHM (automatic mode) for the XRPD peak around 8.7 ± 0.2° 2θ,"[1]; 110 °C, 0.5 h",0.84 ° 2θ
same,FWHM (automatic mode) for the XRPD peak around 8.7 ± 0.2° 2θ,"[1]; 110 °C, 1 h",0.87 ° 2θ
same,FWHM (automatic mode) for the XRPD peak around 8.7 ± 0.2° 2θ,"[1]; 110 °C, 6 h",0.71 ° 2θ
same,FWHM (automatic mode) for the XRPD peak around 8.7 ± 0.2° 2θ,"[1]; 110 °C, 24 h",0.66 ° 2θ
same,FWHM (automatic mode) for the XRPD peak around 8.7 ± 0.2° 2θ,"[1]; 110 °C, 48 h",0.60 ° 2θ
same,FWHM (automatic mode) for the XRPD peak around 8.7 ± 0.2° 2θ,"[1]; 110 °C, 72 h",0.58 ° 2θ
same,FWHM (automatic mode) for the XRPD peak around 8.7 ± 0.2° 2θ,"[1]; 120 °C, 0 h",0.97 ° 2θ
same,FWHM (automatic mode) for the XRPD peak around 8.7 ± 0.2° 2θ,"[1]; 120 °C, 0.25 h",0.81 ° 2θ
same,FWHM (automatic mode) for the XRPD peak around 8.7 ± 0.2° 2θ,"[1]; 120 °C, 0.5 h",0.76 ° 2θ
same,FWHM (automatic mode) for the XRPD peak around 8.7 ± 0.2° 2θ,"[1]; 120 °C, 1 h",0.71 ° 2θ
same,FWHM (automatic mode) for the XRPD peak around 8.7 ± 0.2° 2θ,"[1]; 120 °C, 6 h",0.63 ° 2θ
same,FWHM (automatic mode) for the XRPD peak around 8.7 ± 0.2° 2θ,"[1]; 120 °C, 24 h",0.58 ° 2θ
same,FWHM (automatic mode) for the XRPD peak around 8.7 ± 0.2° 2θ,"[1]; 120 °C, 48 h",0.58 ° 2θ
same,FWHM (automatic mode) for the XRPD peak around 8.7 ± 0.2° 2θ,"[1]; 120 °C, 72 h",0.53 ° 2θ
same,FWHM (automatic mode) for the XRPD peak around 8.7 ± 0.2° 2θ,"[1]; 130 °C, 0 h",0.97 ° 2θ
same,FWHM (automatic mode) for the XRPD peak around 8.7 ± 0.2° 2θ,"[1]; 130 °C, 0.25 h",0.81 ° 2θ
same,FWHM (automatic mode) for the XRPD peak around 8.7 ± 0.2° 2θ,"[1]; 130 °C, 0.5 h",0.74 ° 2θ
same,FWHM (automatic mode) for the XRPD peak around 8.7 ± 0.2° 2θ,"[1]; 130 °C, 1 h",0.66 ° 2θ
same,FWHM (automatic mode) for the XRPD peak around 8.7 ± 0.2° 2θ,"[1]; 130 °C, 6 h",0.50 ° 2θ
same,FWHM (automatic mode) for the XRPD peak around 8.7 ± 0.2° 2θ,"[1]; 130 °C, 24 h",0.50 ° 2θ
same,FWHM (automatic mode) for the XRPD peak around 8.7 ± 0.2° 2θ,"[1]; 130 °C, 48 h",0.50 ° 2θ
same,FWHM (automatic mode) for the XRPD peak around 8.7 ± 0.2° 2θ,"[1]; 130 °C, 72 h",0.50 ° 2θ
same,FWHM (automatic mode) for the XRPD peak around 8.7 ± 0.2° 2θ,"[1]; 140 °C, 0 h",0.97 ° 2θ
same,FWHM (automatic mode) for the XRPD peak around 8.7 ± 0.2° 2θ,"[1]; 140 °C, 0.25 h",0.68 ° 2θ
same,FWHM (automatic mode) for the XRPD peak around 8.7 ± 0.2° 2θ,"[1]; 140 °C, 0.5 h",0.58 ° 2θ
same,FWHM (automatic mode) for the XRPD peak around 8.7 ± 0.2° 2θ,"[1]; 140 °C, 1 h",0.53 ° 2θ
same,FWHM (automatic mode) for the XRPD peak around 8.7 ± 0.2° 2θ,"[1]; 140 °C, 6 h",0.45 ° 2θ
same,FWHM (automatic mode) for the XRPD peak around 8.7 ± 0.2° 2θ,"[1]; 140 °C, 24 h",0.45 ° 2θ
same,FWHM (automatic mode) for the XRPD peak around 8.7 ± 0.2° 2θ,"[1]; 140 °C, 48 h",0.42 ° 2θ
same,FWHM (automatic mode) for the XRPD peak around 8.7 ± 0.2° 2θ,"[1]; 140 °C, 72 h",0.45 ° 2θ
same,mass increase when subjected to an increase in relative humidity from about 0% to about 65% RH as determined by DVS,[2]; sample of FIG. 1,less than 1.0%
same,mass increase when subjected to an increase in relative humidity from about 0% to about 65% RH as determined by DVS,[2]; sample of FIG. 2,about 1.3%
same,mass increase when subjected to an increase in relative humidity from about 0% to about 65% RH as determined by DVS,[2]; sample of FIG. 3,about 2.9%
same,Moisture absorbed for SNAC at 65% RH determined by DVS,"[2]; Batch 5, after 24 h at 90 °C",1.73%
same,Moisture absorbed for SNAC at 65% RH determined by DVS,"[2]; Batch 5, after 24 h at 100 °C",1.37%
same,Moisture absorbed for SNAC at 65% RH determined by DVS,"[2]; Batch 5, after 24 h at 110 °C",1.21%
same,Moisture absorbed for SNAC at 65% RH determined by DVS,"[2]; Batch 5, after 24 h at 120 °C",0.94%
same,Moisture absorbed for SNAC at 65% RH determined by DVS,"[2]; Batch 5, after 24 h at 130 °C",0.81%
same,Moisture absorbed for SNAC at 65% RH determined by DVS,"[2]; Batch 5, after 24 h at 140 °C",0.74%
same,Polymorphic form of SNAC determined by XRPD,"[3]; 120 °C, 48 h",A & B
same,Polymorphic form of SNAC determined by XRPD,"[3]; 120 °C, 72 h",A & B
same,Polymorphic form of SNAC determined by XRPD,"[3]; 130 °C, 6 h",A & B
same,Polymorphic form of SNAC determined by XRPD,"[3]; 130 °C, 24 h",A & B
same,Polymorphic form of SNAC determined by XRPD,"[3]; 130 °C, 48 h",A & B
same,Polymorphic form of SNAC determined by XRPD,"[3]; 130 °C, 72 h",A & B
same,Polymorphic form of SNAC determined by XRPD,"[3]; 140 °C, 1 h",A & B
same,Polymorphic form of SNAC determined by XRPD,"[3]; 140 °C, 6 h",A & B
same,Polymorphic form of SNAC determined by XRPD,"[3]; 140 °C, 24 h",A & B
same,Polymorphic form of SNAC determined by XRPD,"[3]; 140 °C, 48 h",A & B
same,Polymorphic form of SNAC determined by XRPD,"[3]; 140 °C, 72 h",A & B
same,onset time of conversion into polymorphic form B,[3]; at 120° C.,more than 24 h
same,onset time of conversion into polymorphic form B,[3]; at 130° C.,> 1 h
same,onset time of conversion into polymorphic form B,[3]; at 140° C.,> 0.5 h
same,conversion of the polymorphic form,[3]; exposure for up to 72 h at temperatures up to about 110° C.,does not convert
